Where “and” joins values, the source holds several entries; their conditions need not be identical. Equal entries are not always repeated. ± gives the expanded uncertainty stated by the source.
Details: Liquid, Transpiration method

CC(C)(C)[N+](=O)[O-] [2-methyl-2-nitropropane]
Details | vapor or sublimation pressure [kPa]
299.3 K | 2.054 ± 0.13
303.2 K | 2.553 ± 0.16
304.2 K | 2.705 ± 0.17
308.2 K | 3.261 ± 0.2
309.2 K | 3.527 ± 0.22
313.2 K | 4.205 ± 0.26
314.2 K | 4.41 ± 0.27
318.2 K | 5.269 ± 0.33
323.2 K | 6.65 ± 0.41
328.1 K | 8.479 ± 0.53

CC(C)[N+](=O)[O-] [2-nitropropane]
Details | vapor or sublimation pressure
274.7 K | 0.609 ± 0.038 kPa
274.8 K | 0.604 ± 0.038 kPa and 0.597 ± 0.038 kPa
279.5 K | 0.799 ± 0.05 kPa
279.6 K | 0.827 ± 0.052 kPa
284.4 K | 1.092 ± 0.068 kPa and 1.091 ± 0.068 kPa
289.3 K | 1.459 ± 0.092 kPa
294.2 K | 1.953 ± 0.12 kPa
294.3 K | 1.9 ± 0.12 kPa
299.2 K | 2.574 ± 0.16 kPa
304.1 K | 3.344 ± 0.21 kPa
304.2 K | 3.336 ± 0.21 kPa
309.1 K | 4.299 ± 0.27 kPa
314.1 K | 5.612 ± 0.35 kPa and 5.563 ± 0.34 kPa

Reference: the NIST ThermoML archive (doi:10.1016/j.tca.2017.07.001)
